Measured values published in patent publication US20070128217A1 (priority 2003, published 2007).

Tests used:
[1] = test system: antibodies in sera from SARS patients (sera 1a, 1b, 2, 6, 37, 62, London, SARS-yellow, SARS-green); type: binding, human; parameters: Binding of serum 6 to linear peptides of protein X1 of SARS-CoV Urbani / Binding of serum 37 to linear peptides of protein X1 of SARS-CoV Urbani / Binding of serum 6 to looped/cyclic peptide (PEPSCAN-ELISA) / Binding of serum 37 to looped/cyclic peptide (PEPSCAN-ELISA) / Binding of serum 37 to looped/cyclic peptides of protein X1 of SARS-CoV Urbani / Binding of serum 6 to linear peptides of protein X2 / Binding of serum 37 to linear peptides of protein X2 / Binding of serum 37 to looped/cyclic peptides of protein X2 of SARS-CoV Urbani / Binding of serum 6 to linear peptides of protein M of SARS-CoV Urbani / Binding of serum 37 to linear peptides of protein M of SARS-CoV Urbani / Binding of serum 6 to looped/cyclic peptides of protein M of SARS-CoV Urbani / Binding of serum 37 to looped/cyclic peptides of protein M of SARS-CoV Urbani / Binding of serum 6 to linear peptides of protein X3 of SARS-CoV Urbani / Binding of serum 37 to linear peptides of protein X3 of SARS-CoV Urbani / Binding of serum 37 to looped/cyclic peptides of protein X3 of SARS-CoV Urbani / Binding of serum 6 to linear peptides of protein X4 of SARS-CoV Urbani / Binding of serum 37 to linear peptides of protein X4 of SARS-CoV Urbani / Binding of serum 37 to looped/cyclic peptides of protein X4 of SARS-CoV Urbani / Binding of serum 6 to linear peptides of protein X5 of SARS-CoV Urbani / Binding of serum 37 to linear peptides of protein X5 of SARS-CoV Urbani / Binding of serum 37 to looped/cyclic peptides of protein X5 of SARS-CoV Urbani / Binding of serum 6 to linear peptides of protein N of SARS-CoV Urbani / Binding of serum 37 to linear peptides of protein N of SARS-CoV Urbani / Binding of serum 6 to linear peptide (PEPSCAN-ELISA) / Binding of serum 1a to looped/cyclic peptides of protein N of SARS-CoV Urbani / Binding of serum 1b to looped/cyclic peptides of protein N of SARS-CoV Urbani / Binding of serum 2 to looped/cyclic peptides of protein N of SARS-CoV Urbani / Binding of serum 6 to looped/cyclic peptides of protein N of SARS-CoV Urbani / Binding of serum 37 to looped/cyclic peptides of protein N of SARS-CoV Urbani / Binding of serum 62 to looped/cyclic peptides of protein N of SARS-CoV Urbani / Binding of serum London to looped/cyclic peptides of protein N of SARS-CoV Urbani / Binding of serum SARS-green to looped/cyclic peptides of protein N of SARS-CoV Urbani: unit not given here
[2] = test system: rabbit serum obtained by immunizing a rabbit with the SARS-CoV strain Frankfurt 1; type: binding; parameters: Binding of a rabbit serum to linear peptides / Binding of a rabbit serum to looped peptides / Rabbit serum linear peptides / Rabbit serum looped peptides / Binding of a rabbit serum to linear peptides of protein N of SARS-CoV Urbani (Rabbit serum linear peptides) / Binding of a rabbit serum to looped/cyclic peptides of protein N of SARS-CoV Urbani (Rabbit serum looped peptides): unit not given here
[3] = test system: control sera (pooled serum of ten healthy LUMC hospital workers; commercial negative donor pooled serum from the Dutch bloodbank); type: binding, human; parameters: Binding of Control serum LUMC to linear peptides / Binding of Control serum Blood-bank to linear peptides / Binding of Control serum LUMC to looped peptides / Binding of Control Serum Blood-Bank to Looped peptides / Binding of Control serum LUMC to linear peptides of the protein M of SARS-CoV Urbani / Binding of Control serum Blood-bank to linear peptides of the protein M of SARS-CoV Urbani / Binding of Control serum LUMC to looped peptides of the protein M of SARS-CoV Urbani / Binding of Control Serum Blood-Bank to Looped peptides of the protein M of SARS-CoV Urbani: unit not given here

Row | Sequence | Binding of serum 1a to linear peptides of protein X4 of SARS-CoV Urbani [1] | Binding of serum 1a to looped/cyclic peptides of protein X4 of SARS-CoV Urbani [1] | Binding of serum 1b to linear peptides of protein X4 of SARS-CoV Urbani [1] | Binding of serum 1b to looped/cyclic peptides of protein X4 of SARS-CoV Urbani [1] | Binding of serum 2 to linear peptides of protein X4 of SARS-CoV Urbani [1] | Binding of serum 2 to looped/cyclic peptides of protein X4 of SARS-CoV Urbani [1] | Binding of serum 6 to linear peptides of protein X4 of SARS-CoV Urbani [1] | Binding of serum 6 to looped/cyclic peptides of protein X4 of SARS-CoV Urbani [1] | Binding of serum 37 to linear peptides of protein X4 of SARS-CoV Urbani [1] | Binding of serum 37 to looped/cyclic peptides of protein X4 of SARS-CoV Urbani [1] | Binding of serum 62 to linear peptides of protein X4 of SARS-CoV Urbani [1] | Binding of serum 62 to looped/cyclic peptides of protein X4 of SARS-CoV Urbani [1] | Binding of serum London to linear peptides of protein X4 of SARS-CoV Urbani [1] | Binding of serum London to looped/cyclic peptides of protein X4 of SARS-CoV Urbani [1] | Binding of Control Serum Blood-Bank to Looped peptides [3] | Binding of Control serum Blood-bank to linear peptides [3] | Binding of Control serum LUMC to linear peptides [3] | Binding of Control serum LUMC to looped peptides [3] | Rabbit serum linear peptides [2] | Rabbit serum looped peptides [2] | further results
1 | LRARSVSPKLFIRQE | 0.7 | 0.8 | 0.6 | 0.6 | 0.5 | 0.6 | 0.8 | 0.8 | 0.7 | 0.7 | 0.8 | 0.7 | 0.8 | 0.4 | 0.6 | 0.6 | 0.6 | 0.7 | – | – | Binding of serum SARS-green to linear peptides of protein X4 of SARS-CoV Urbani [1]: 0.6; Binding of serum SARS-green to looped/cyclic peptides of protein X4 of SARS-CoV Urbani [1]: 0.6; Binding of serum SARS-yellow to linear peptides of protein X4 of SARS-CoV Urbani [1]: 0.3; Binding of serum SARS-yellow to looped/cyclic peptides of protein X4 of SARS-CoV Urbani [1]: 0.7; Recognition of the peptide by the rabbit serum [2]: recognized
2 | LRGTIVTRPLMESEL | – | – | – | – | – | – | – | – | – | – | – | – | – | – | – | – | – | – | 0.0 | 0.5 | Binding of serum 1a to linear peptides of protein M of SARS-CoV Urbani [1]: 0.7; Binding of serum 1b to linear peptides of protein M of SARS-CoV Urbani [1]: 0.5; Binding of serum 2 to linear peptides of protein M of SARS-CoV Urbani [1]: 0.3; Binding of serum 6 to linear peptides of protein M of SARS-CoV Urbani [1]: 0.3; Binding of serum 37 to linear peptides of protein M of SARS-CoV Urbani [1]: 0.5; Binding of serum 62 to linear peptides of protein M of SARS-CoV Urbani [1]: 0.4; Binding of serum London to linear peptides of protein M of SARS-CoV Urbani [1]: 0.3; Binding of serum SARS-green to linear peptides of protein M of SARS-CoV Urbani [1]: 0.4; Binding of serum SARS-yellow to linear peptides of protein M of SARS-CoV Urbani [1]: 1.0; Recognition of the peptide by sera of SARS-CoV infected individuals, and form (linear, looped/cyclic) in which it is recognized [1]: recognized in looped/cyclic form; Binding of Control Serum Blood-Bank to Looped peptides of the protein M of SARS-CoV Urbani [3]: 0.7; Binding of Control serum Blood-bank to linear peptides of the protein M of SARS-CoV Urbani [3]: 0.5; Binding of Control serum LUMC to linear peptides of the protein M of SARS-CoV Urbani [3]: 0.5; Binding of Control serum LUMC to looped peptides of the protein M of SARS-CoV Urbani [3]: 0.7
3 | LSLHKLLQTLVLKML | – | – | – | – | – | – | – | – | – | – | – | – | – | – | 0.6 | 0.5 | 0.2 | 0.7 | – | – | Binding of serum 1a to linear peptides of protein X2 [1]: 0.7; Binding of serum 1a to looped/cyclic peptides of protein X2 of SARS-CoV Urbani [1]: 0.5; Binding of serum 1b to linear peptides of protein X2 [1]: 0.4; Binding of serum 1b to looped/cyclic peptides of protein X2 of SARS-CoV Urbani [1]: 0.4; Binding of serum 2 to linear peptides of protein X2 [1]: 0.3; Binding of serum 2 to looped/cyclic peptides of protein X2 of SARS-CoV Urbani [1]: 0.3; Binding of serum 6 to linear peptides of protein X2 [1]: 0.3; Binding of serum 6 to looped/cyclic peptides of protein X2 of SARS-CoV Urbani [1]: 0.6; Binding of serum 37 to linear peptides of protein X2 [1]: 0.4; Binding of serum 37 to looped/cyclic peptides of protein X2 of SARS-CoV Urbani [1]: 0.4; Binding of serum 62 to linear peptides of protein X2 [1]: 0.5; Binding of serum 62 to looped/cyclic peptides of protein X2 of SARS-CoV Urbani [1]: 0.6; Binding of serum London to linear peptides of protein X2 [1]: 0.4; Binding of serum London to looped/cyclic peptides of protein X2 of SARS-CoV Urbani [1]: 1.3; Binding of serum SARS-green to linear peptides of protein X2 [1]: 0.4; Binding of serum SARS-green to looped/cyclic peptides of protein X2 of SARS-CoV Urbani [1]: 0.2; Binding of serum SARS-yellow to linear peptides of protein X2 [1]: 0.2; Binding of serum SARS-yellow to looped/cyclic peptides of protein X2 of SARS-CoV Urbani [1]: 0.6; Binding of a rabbit serum to linear peptides [2]: 0.3; Binding of a rabbit serum to looped peptides [2]: 0.5
4 | LSYFVASFRLFARTR | – | – | – | – | – | – | – | – | – | – | – | – | – | – | – | – | – | – | 0.4 | 0.6 | Binding of serum 1a to linear peptides of protein M of SARS-CoV Urbani [1]: 0.7; Binding of serum 1b to linear peptides of protein M of SARS-CoV Urbani [1]: 0.4; Binding of serum 2 to linear peptides of protein M of SARS-CoV Urbani [1]: 0.4; Binding of serum 6 to linear peptides of protein M of SARS-CoV Urbani [1]: 0.4; Binding of serum 37 to linear peptides of protein M of SARS-CoV Urbani [1]: 0.6; Binding of serum 62 to linear peptides of protein M of SARS-CoV Urbani [1]: 0.7; Binding of serum London to linear peptides of protein M of SARS-CoV Urbani [1]: 0.3; Binding of serum SARS-green to linear peptides of protein M of SARS-CoV Urbani [1]: 0.2; Binding of serum SARS-yellow to linear peptides of protein M of SARS-CoV Urbani [1]: 0.1; Recognition of the peptide by sera of SARS-CoV infected individuals, and form (linear, looped/cyclic) in which it is recognized [1]: recognized in looped/cyclic form; Binding of Control Serum Blood-Bank to Looped peptides of the protein M of SARS-CoV Urbani [3]: 0.8; Binding of Control serum Blood-bank to linear peptides of the protein M of SARS-CoV Urbani [3]: 0.6; Binding of Control serum LUMC to linear peptides of the protein M of SARS-CoV Urbani [3]: 0.3; Binding of Control serum LUMC to looped peptides of the protein M of SARS-CoV Urbani [3]: 1.0
5 | LTCTSTHFAFACADG | 0.8 | 0.6 | 0.8 | 0.3 | 0.5 | 0.6 | 0.6 | 0.5 | 0.8 | 0.5 | 0.8 | 0.6 | 0.8 | 0.3 | 0.7 | 0.8 | 0.8 | 0.6 | 0.5 | 0.3 | Binding of serum SARS-green to linear peptides of protein X4 of SARS-CoV Urbani [1]: 0.8; Binding of serum SARS-green to looped/cyclic peptides of protein X4 of SARS-CoV Urbani [1]: 0.4; Binding of serum SARS-yellow to linear peptides of protein X4 of SARS-CoV Urbani [1]: 0.5; Binding of serum SARS-yellow to looped/cyclic peptides of protein X4 of SARS-CoV Urbani [1]: 0.4
6 | LTLIVFTSCELYHYQ | 0.7 | 0.8 | 0.6 | 0.7 | 0.5 | 0.7 | 0.5 | 0.5 | 0.7 | 0.7 | 0.8 | 0.7 | 0.7 | 0.3 | 0.7 | 0.7 | 0.7 | 0.8 | 0.5 | 0.3 | Binding of serum SARS-green to linear peptides of protein X4 of SARS-CoV Urbani [1]: 0.7; Binding of serum SARS-green to looped/cyclic peptides of protein X4 of SARS-CoV Urbani [1]: 0.4; Binding of serum SARS-yellow to linear peptides of protein X4 of SARS-CoV Urbani [1]: 0.4; Binding of serum SARS-yellow to looped/cyclic peptides of protein X4 of SARS-CoV Urbani [1]: 0.7
